The values that follow come from US9393288B2, “Methods of treating diseases associated with PPARγ” (The University of Vermont and State Agricultural College, priority 2012, dated 2016).

Entries after “also recorded” stand apart in the source; their conditions may differ.

Experiment [1] has as its system PPARγ and PPARγ target genes. Briefly: Expression of PPARγ and PPARγ target genes (qPCR) in adipose tissue and brain cortex, SHR. Format: in vivo, rat. The procedure:
After dissecting PA and MCA for isolated vessel experiments, the remaining MCA, PA, and brain cortex from the MCA territory of 4-6 rats were collected and stored at −80° C. in RNase inhibitor (1 unit/μl, RiboLock, Fermentas, Glen Burnie, Md., USA) to determine mRNA expression levels of target genes using real-time qPCR methods. Target genes were assessed using Assays on Demand from Applied Biosystems. […] All primers were designed across an exon-exon junction to avoid detecting genomic DNA, so no DNase treatment was required. Housekeeping gene β-actin was used in all qPCR experiments as a control. Standard techniques for real-time qPCR were performed by the Vermont Cancer Center DNA analysis facility at the University of Vermont, as described previously (Cipolla, M. J., Smith, J., Kohlmeyer, M. M., and Godfrey, J. A. (2009) SKCa and IKCa Channels, myogenic tone, and vasodilator responses in middle cerebral arteries and parenchymal arterioles: effect of ischemia and reperfusion. Stroke 40, 1451-1457).
To investigate the mechanisms by which relaxin causes selectively remodeling of PA, mRNA expression of VEGF, MMP-2, and MMP-9 were compared between MCA, PA, brain cortex. To determine if relaxin activates peroxisome proliferator-activated receptor-gamma (PPARγ), expression levels of PPARγ target genes fatty acid binding protein-4 (FABP4) and plasminogen activator inhibitor-1 (PAI-1) were determined in mesenteric adipose tissue. Expression levels of PPARγ and its target genes PAI-1 and liver X receptors-α (LXR-α) were also determined in brain cortex (Chan, S. L., and Cipolla, M. J. (2012) Determination of PPARgamma activity in adipose tissue and spleen. J Immunoassay Immunochem 33, 314-324).

The test system of experiment [2] is parenchymal arterioles (PA). The experiment in a line: Pressurized arteriograph: vascular reactivity and structure of PA from relaxin-treated NP Sprague Dawley rats. Format: in vivo, rat. To be noted: for Kind of structural remodeling of PA: normotensive NP rats. The source says: Animals and Treatment Groups: All procedures were approved by the Institutional Animal Care and Use Committee and conducted in accordance with the National Institutes of Health Guide for the Care and Use of Laboratory Animals. Female virgin NP Sprague Dawley rats (250-300 g, 14-16 weeks, Charles River, Canada) were used for all experiments and housed in the University of Vermont Animal Care Facility. Animals were randomly selected and grouped as untreated (N=4), treated with recombinant human relaxin-2 (relaxin, 4 μg/hr; N=14), relaxin plus a specific PPARγ inhibitor GW9662 (10 mg/kg daily in food; N=8), or vehicle (20 mM sodium acetate; N=14) for 10 days through osmotic minipumps (Alzet 2ML2, Durect Corp., Cupertino, Calif., USA). GW9662 treatment was started 1 day before and for the duration of relaxin treatment to ensure PPARγ was inhibited. Animals were anesthetized with 3% isoflurane and minipumps implanted subcutaneously in the back of the neck. All animals received post-surgical analgesic (buprenorphine, 50 μg/kg, s.c.). Relaxin infusion was continuous for 10 days until animals were euthanized for vessel experiments and tissue collection. The minipumps used were capable of delivering relaxin for 14 days and thus tissue collection was within this duration.
Vessel Preparation and Pressurized Arteriograph System: After collecting trunk blood, the brain was quickly removed and placed in cold physiological salt solution (PSS). In the first set of experiments, PA between the M1 and M2 region of the MCA territory and the MCA from the same animals were carefully isolated from vehicle- or relaxin-treated animals and mounted on glass cannulas in a dual-chambered arteriograph such that one PA and one MCA from each animal were studied simultaneously. PA were identified as branches off the MCA that penetrated into the brain tissue, as previously described (25). In the second set of experiments, PA from the same brain region as above were dissected from relaxin+GW9662-treated animal and compared to PA from vehicle- and relaxin-treated animals. MCA were not studied in this second set of animals because there was no effect of relaxin on that segment of the vasculature. The proximal cannulas were connected to an in-line pressure transducer and a servo-null pressure control system (Living Systems Instrumentation, Burlington, Vt., USA) that allowed intravascular pressure to be maintained at a set pressure or changed at a variable rate. The distal cannulas were closed during the experiment to avoid flow-mediated responses. Temperature and pH were continuously measured and maintained at 37.0±0.5° C. and 7.40±0.05, respectively. Measurements of inner diameter (ID) and wall thickness (WT) were made via video microscopy (Living Systems Instrumentation).
Vascular Reactivity and Structural Characteristics in PA and MCA: For the first set of experiments, PA and MCA were equilibrated for 1 hour at 25 mmHg, after which myogenic activity was determined by stepwise increases in pressure from 40 to 100 mmHg for PA or 50 to 175 mmHg for MCA. ID and WT were measured at each pressure once stable. Changes in ID and WT were measured in PA only in response to small- (SKCa) and intermediate- (IKCa) conductance calcium-activated potassium channels blockers, apamin (3×10^−7 M) and TRAM-34 (10^−6 M), respectively. PA are unique in that the contribution of endothelium-derived hyperpolarizing factors (EDHF) to tone is greater than most vessels Cipolla et al. (2009) Stroke 40, 1451-1457. Thus, inhibition of SKCa/IKCa channels, a critical component in the EDHF pathway, causes constriction in PA Cipolla et al. (2009) Stroke 40, 1451-1457. We therefore assessed the effect of relaxin on constriction of PA in response to SKCa/IKCa channel inhibition in order to assess this unique pathway. […]

Where [3] appears, read: SHR-F-Rln vs SHR-F, listed as Relaxin.
[4] abbreviates: relaxin- vs vehicle-treated NP rats.
The mark [5] stands for this setting: relaxin- vs vehicle-treated NP rats, all pressures studied.

Consider relaxin, for which, in experiment [1] (setting [3]), the “FABP4 expression in adipose tissue” value is “decreased both FABP4 and PAI-1 expressions in adipose tissue, although this was not statistically significant; also recorded: decreased expression of FABP4 and PAI-1 in adipose tissue, although this was not statistically significant”; the “PAI-1 expression in adipose tissue” value was “decreased both FABP4 and PAI-1 expressions in adipose tissue, although this was not statistically significant; also recorded: decreased expression of FABP4 and PAI-1 in adipose tissue, although this was not statistically significant”. In addition, the “Expression of PPARγ and its target genes (PAI-1, LXR-α) in brain cortex” value in experiment [1] (WKY-F, SHR-F, SHR-F-Rln) was “did not affect”. Also, the “Kind of structural remodeling of PA” value in experiment [2] is recorded as “hypertrophic outward remodeling”. The “Kind of structural remodeling of PA” value in experiment [2] (listed as Relaxin) is listed as “outward hypertrophic remodeling”. Moreover, the “Distensibility of PA” value in experiment [2] (normotensive rats) is on record as “without affecting”. Further, in experiment [2] (setting [4]), the “CSA of PA wall” value is reported as “increased”; the “OD of PA” value is recorded as “increased”; the “Passive WT of PA” value is given as “increased”; the “Response of PA to SKCa/IKCa inhibition (apamin, TRAM-34)” value was “no difference”. In experiment [2] (setting [4]), the “Tone of PA” value is “did not significantly affect”. Besides, in experiment [2] (setting [5]), the “Active diameter of PA” value is listed as “increase” and the “Passive ID of PA” value is listed as “significantly increased”.
